The test has as its system L1210 leukemia ip in BDF1 mice, survival T/C. Nature of the test: NCI In Vivo Anticancer Drug Screen. Data for tumor model L1210 Leukemia (intraperitoneal) in B6D2F1 (BDF1) mice. As to conditions: higher = longer survival. The method, boiled down:
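Tumor cells were implanted, animals were treated, and survival was followed. The result divides the treated measurement by the vehicle-control measurement.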

Setting [1] is: endpoint: mean survival time, dose: 100.0 mg/kg/injection, schedule: Q01DX009 (ip), vehicle: Klucel (hydroxypropylcellulose) (HPC).
The mark [2] stands for this setting: endpoint: mean survival time, dose: 100.0 mg/kg/injection, schedule: Q04DX003 (ip), vehicle: Klucel (hydroxypropylcellulose) (HPC).
Where [3] appears, read: endpoint: mean survival time, dose: 200.0 mg/kg/injection, schedule: Q01DX009 (ip), vehicle: Klucel (hydroxypropylcellulose) (HPC).
Where [4] appears, read: endpoint: mean survival time, dose: 200.0 mg/kg/injection, schedule: Q04DX003 (ip), vehicle: Klucel (hydroxypropylcellulose) (HPC).
Where [5] appears, read: endpoint: mean survival time, dose: 400.0 mg/kg/injection, schedule: Q01DX009 (ip), vehicle: Klucel (hydroxypropylcellulose) (HPC).
Where [6] appears, read: endpoint: mean survival time, dose: 400.0 mg/kg/injection, schedule: Q04DX003 (ip), vehicle: Klucel (hydroxypropylcellulose) (HPC).
The mark [7] stands for this setting: endpoint: mean survival time, dose: 50.0 mg/kg/injection, schedule: Q01DX009 (ip), vehicle: Klucel (hydroxypropylcellulose) (HPC).

Each structure is given as a SMILES string. Where “and” joins values, the source holds several entries; their conditions need not be identical. Equal entries are not always repeated. Inconclusive results and toxic doses are left out.

In the case of `c1ccc(Cc2cc(-c3ccccc3)n[nH]2)cc1`, the T/C (endpoint: mean survival time, dose: 100.0 mg/kg/injection, schedule: Q01DX001 (ip), vehicle: Klucel (hydroxypropylcellulose) (HPC)) was 100 % of control; the T/C under setting [1] was 110 % of control; the T/C under setting [2] was 100 % of control; the T/C (endpoint: mean survival time, dose: 200.0 mg/kg/injection, schedule: Q01DX001 (ip), vehicle: Klucel (hydroxypropylcellulose) (HPC)) is 101 % of control; the T/C under setting [3] is 96 % of control; the T/C under setting [4] was 93 % of control. Further, the T/C (endpoint: mean survival time, dose: 400.0 mg/kg/injection, schedule: Q01DX001 (ip), vehicle: Klucel (hydroxypropylcellulose) (HPC)) is 103 % of control; the T/C under setting [5] was 100 % of control; the T/C under setting [6] was 98 % of control.
Regarding `CC(=O)Nc1c(C)cc(C)cc1C`, the T/C runs as follows: under setting [7], 105 % of control; under setting [1], 106 % of control; under setting [2], 96 % of control; under setting [3], 103 % of control; under setting [4], 102 % of control; under setting [5], 103 % of control. The T/C under setting [6] was 104 % of control.
For `c1ccc(SC23CC4CC(CC(C4)C2)C3)nc1`, the T/C (endpoint: mean survival time, dose: 100.0 mg/kg/injection, schedule: Q01DX003 (ip), vehicle: Klucel (hydroxypropylcellulose) (HPC)) is 100 % of control; the T/C under setting [2] is 94 % of control; the T/C (endpoint: mean survival time, dose: 200.0 mg/kg/injection, schedule: Q01DX003 (ip), vehicle: Klucel (hydroxypropylcellulose) (HPC)) is 89 % of control; the T/C under setting [4] is 91 % of control; the T/C (endpoint: mean survival time, dose: 400.0 mg/kg/injection, schedule: Q01DX003 (ip), vehicle: Klucel (hydroxypropylcellulose) (HPC)) was 94 % of control; the T/C under setting [6] is 102 % of control.
Take `C/C(=N/N=C(N)N)c1ccc(NC(=O)Nc2ccc(/C(C)=N/N=C(N)N)cc2)cc1`: the T/C (endpoint: mean survival time, dose: 8.0 mg/kg/injection, schedule: Q03HX016 (ip), vehicle: other) is 159 % of control; the T/C (endpoint: mean survival time, dose: 16.0 mg/kg/injection, schedule: Q01DX005 (ip), vehicle: other) is 179 % of control; the T/C (endpoint: mean survival time, dose: 16.0 mg/kg/injection, schedule: Q01DX009 (ip), vehicle: other) was 236 % of control; the T/C (endpoint: mean survival time, dose: 20.0 mg/kg/injection, schedule: Q01DX005 (ip), vehicle: saline) was 121 % of control; the T/C (endpoint: mean survival time, dose: 32.0 mg/kg/injection, schedule: Q01DX005 (ip), vehicle: other) is 213 % of control; the T/C (endpoint: mean survival time, dose: 32.0 mg/kg/injection, schedule: Q01DX009 (ip), vehicle: other) was 239 % of control. Besides, the T/C is 154 % of control and 205 % of control (endpoint: mean survival time, dose: 32.0 mg/kg/injection, schedule: Q01DX009 (ip), vehicle: water); 159 % of control (endpoint: mean survival time, dose: 40.0 mg/kg/injection, schedule: Q01DX005 (ip), vehicle: saline); 218 % of control and 255 % of control (endpoint: mean survival time, dose: 53.0 mg/kg/injection, schedule: Q01DX009 (ip), vehicle: water); 116 % of control (endpoint: mean survival time, dose: 64.0 mg/kg/injection, schedule: Q01DX001 (ip), vehicle: other); 111 % of control (endpoint: mean survival time, dose: 64.0 mg/kg/injection, schedule: Q01DX001 (oral), vehicle: other); 111 % of control (endpoint: mean survival time, dose: 64.0 mg/kg/injection, schedule: Q01DX009 (oral), vehicle: other). In addition, the T/C runs as follows: (endpoint: mean survival time, dose: 64.0 mg/kg/injection, schedule: Q04DX003 (ip), vehicle: other) 159 % of control; (endpoint: mean survival time, dose: 64.0 mg/kg/injection, schedule: Q08DX002 (ip), vehicle: other) 122 % of control; (endpoint: mean survival time, dose: 80.0 mg/kg/injection, schedule: Q01DX005 (ip), vehicle: saline) 206 % of control; (endpoint: mean survival time, dose: 88.0 mg/kg/injection, schedule: Q01DX009 (ip), vehicle: water) 223 % of control and 251 % of control; (endpoint: mean survival time, dose: 128.0 mg/kg/injection, schedule: Q01DX001 (oral), vehicle: other) 101 % of control; (endpoint: mean survival time, dose: 128.0 mg/kg/injection, schedule: Q01DX009 (oral), vehicle: other) 106 % of control. Further, the T/C (endpoint: mean survival time, dose: 147.0 mg/kg/injection, schedule: Q01DX009 (ip), vehicle: water) is 323 % of control; the T/C (endpoint: mean survival time, dose: 160.0 mg/kg/injection, schedule: Q01DX005 (ip), vehicle: saline) was 197 % of control; the T/C (endpoint: mean survival time, dose: 245.0 mg/kg/injection, schedule: Q01DX009 (ip), vehicle: water) is 227 % of control; the T/C (endpoint: mean survival time, dose: 256.0 mg/kg/injection, schedule: Q01DX001 (oral), vehicle: other) is 101 % of control; the T/C (endpoint: mean survival time, dose: 256.0 mg/kg/injection, schedule: Q01DX009 (oral), vehicle: other) is 108 % of control; the T/C (endpoint: mean survival time, dose: 320.0 mg/kg/injection, schedule: Q01DX005 (ip), vehicle: saline) was 173 % of control. Moreover, the T/C runs as follows: (endpoint: mean survival time, dose: 512.0 mg/kg/injection, schedule: Q01DX001 (oral), vehicle: other) 96 % of control; (endpoint: mean survival time, dose: 512.0 mg/kg/injection, schedule: Q01DX009 (oral), vehicle: other) 108 % of control; (endpoint: mean survival time, dose: 1024.0 mg/kg/injection, schedule: Q01DX001 (oral), vehicle: other) 97 % of control; (endpoint: mean survival time, dose: 1024.0 mg/kg/injection, schedule: Q01DX009 (oral), vehicle: other) 109 % of control; (endpoint: median survival time, dose: 5.0 mg/kg/injection, schedule: Q03HX024 (ip), vehicle: water) 152 % of control; (endpoint: median survival time, dose: 15.0 mg/kg/injection, schedule: Q03HX024 (ip), vehicle: water) 302 % of control. Besides, the T/C reads like this: (endpoint: median survival time, dose: 30.0 mg/kg/injection, schedule: Q03HX024 (ip), vehicle: water) 34 % of control; (endpoint: median survival time, dose: 45.0 mg/kg/injection, schedule: Q03HX024 (ip), vehicle: water) 31 % of control.
In the case of `Cc1ccc(NC(=O)Nc2ccccc2F)cc1Cl`, the T/C is 111 % of control under setting [1], 97 % of control under setting [3] and 92 % of control under setting [5].
Take `O=C(O)C1CC2CCC1C2` (configuration not stated): the T/C runs as follows: (endpoint: mean survival time, dose: 100.0 mg/kg/injection, schedule: Q01DX009 (ip), vehicle: saline) 100 % of control; (endpoint: mean survival time, dose: 200.0 mg/kg/injection, schedule: Q01DX009 (ip), vehicle: saline) 104 % of control; (endpoint: mean survival time, dose: 400.0 mg/kg/injection, schedule: Q01DX009 (ip), vehicle: saline) 92 % of control.
With `Nc1nnnn1-c1cccc(Cl)c1`, the T/C (endpoint: mean survival time, dose: 100.0 mg/kg/injection, schedule: Q04DX003 (ip), vehicle: saline with Tween-80) was 96 % of control; the T/C (endpoint: mean survival time, dose: 200.0 mg/kg/injection, schedule: Q04DX003 (ip), vehicle: saline with Tween-80) was 96 % of control; the T/C (endpoint: mean survival time, dose: 400.0 mg/kg/injection, schedule: Q04DX003 (ip), vehicle: saline with Tween-80) was 94 % of control.
In the case of `O=[N+]([O-])/C=C/c1c(Cl)cccc1Cl`, the T/C is 108 % of control (endpoint: mean survival time, dose: 6.25 mg/kg/injection, schedule: Q01DX005 (ip), vehicle: other); 106 % of control (endpoint: mean survival time, dose: 12.5 mg/kg/injection, schedule: Q01DX005 (ip), vehicle: other); 93 % of control (endpoint: mean survival time, dose: 25.0 mg/kg/injection, schedule: Q01DX005 (ip), vehicle: other); 101 % of control (endpoint: mean survival time, dose: 50.0 mg/kg/injection, schedule: Q01DX005 (ip), vehicle: saline with Tween-80); 95 % of control under setting [7]; 93 % of control under setting [1]. The T/C runs as follows: under setting [2], 94 % of control; under setting [4], 100 % of control; under setting [6], 103 % of control.
With `C/C=C/P(=O)(c1ccccc1)c1ccccc1`, the T/C was 110 % of control (endpoint: mean survival time, dose: 50.0 mg/kg/injection, schedule: Q01DX001 (ip), vehicle: saline); 110 % of control (endpoint: mean survival time, dose: 100.0 mg/kg/injection, schedule: Q01DX001 (ip), vehicle: saline); 95 % of control (endpoint: mean survival time, dose: 200.0 mg/kg/injection, schedule: Q01DX001 (ip), vehicle: saline); 104 % of control (endpoint: mean survival time, dose: 400.0 mg/kg/injection, schedule: Q01DX001 (ip), vehicle: saline).
`N#CCC(=O)N/N=C/c1cc(Cl)cc(Cl)c1O`: the T/C by setting is: (endpoint: mean survival time, dose: 100.0 mg/kg/injection, schedule: Q04DX002 (ip), vehicle: saline with Tween-80) 108 % of control; (endpoint: mean survival time, dose: 200.0 mg/kg/injection, schedule: Q04DX002 (ip), vehicle: saline with Tween-80) 97 % of control; (endpoint: mean survival time, dose: 400.0 mg/kg/injection, schedule: Q04DX002 (ip), vehicle: saline with Tween-80) 93 % of control.
For the compound `O=C1c2ccccc2C(=O)N1CNc1cccc(NCN2C(=O)c3ccccc3C2=O)n1`, the T/C was 92 % of control (endpoint: mean survival time, dose: 100.0 mg/kg/injection, schedule: Q01DX009 (ip), vehicle: saline with Tween-80); 91 % of control (endpoint: mean survival time, dose: 200.0 mg/kg/injection, schedule: Q01DX009 (ip), vehicle: saline with Tween-80); 93 % of control (endpoint: mean survival time, dose: 400.0 mg/kg/injection, schedule: Q01DX009 (ip), vehicle: saline with Tween-80).

Source of the values: PubChem BioAssay AID248 (DTP/NCI, 2004).
